Assay results reported in patent publication US10508104B2, “6-hydroxy-5-(phenyl/heteroarylsulfonyl)pyrimidin-4(1H)-one as APJ agonists” (Bristol-Myers Squibb Company, priority 2016, dated 2019).

target: human APJ receptor (Homo sapiens (Human), UniProt P35414); assay: Intracellular cAMP accumulation assay (APJ hcAMP, HTRF); type: cell-based; conditions: HEK293 cells stably expressing human APJ receptor; inhibition of forskolin-mediated cAMP production; read-out: Human APJ cAMP EC50 Potency range
Summary of the method: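 HEK293 cells stably expressing human APJ, 5,000 per well, incubated 30 min at rt with compound, […] and 2 μM forskolin. cAMP measured by HTRF against a cAMP standard curve as inhibition of forskolin-driven production. EC50 from variable-slope sigmoidal fit.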

Chain of human APJ receptor (P35414 whole entry): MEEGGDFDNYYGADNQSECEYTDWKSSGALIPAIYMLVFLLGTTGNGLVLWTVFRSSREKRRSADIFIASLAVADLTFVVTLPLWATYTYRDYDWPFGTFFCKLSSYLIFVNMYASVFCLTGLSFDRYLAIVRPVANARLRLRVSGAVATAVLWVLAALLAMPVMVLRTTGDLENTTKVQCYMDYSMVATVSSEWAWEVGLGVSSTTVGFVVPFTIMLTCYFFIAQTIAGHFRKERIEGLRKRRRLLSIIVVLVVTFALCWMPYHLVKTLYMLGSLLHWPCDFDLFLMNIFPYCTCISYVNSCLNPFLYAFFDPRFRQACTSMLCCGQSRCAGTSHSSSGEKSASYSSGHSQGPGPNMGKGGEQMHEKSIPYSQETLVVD

Row | Compound | EC50
1 | CCCCc1nc(=O)c(S(=O)(=O)[C@H]2CC[C@H](OCc3ccccc3)CC2)c(O)n1-c1c(OC)cccc1OC [Example 366, 2-butyl-1-(2,6-dimethoxyphenyl)-6-hydroxy-5-{[(1r,4r)-4-(benzyloxy)cyclohexyl]sulfonyl}-1,4-dihydropyrimidin-4-one] | 0.01 to 10 nM
2 | CCOCc1nc(=O)c(S(=O)(=O)c2ccc(-c3ccnc(F)c3C)c(F)c2)c(O)n1C(COC)c1cccc(F)c1 (stereo not shown) [Example 373, 2-(ethoxymethyl)-5-[3-fluoro-4-(2-fluoro-3-methylpyridin-4-yl)benzenesulfonyl]-1-[1-(3-fluorophenyl)-2-methoxyethyl]-6-hydroxy-1,4-dihydropyrimidin-4-one] | 0.01 to 10 nM
3 | CCCCc1nc(=O)c(S(=O)(=O)c2ccc(-c3ccccc3C(=O)OC)cc2)c(O)n1[C@@H](CC)c1cccc(C#N)c1 [Example 501, methyl 4′-({2-butyl-1-[(1S)-1-(3-cyanophenyl)propyl]-6-hydroxy-4-oxo-1,4-dihydropyrimidin-5-yl}sulfonyl)-[1,1′-biphenyl]-2-carboxylate] | 0.01 to 10 nM
4 | CCCCc1nc(=O)c(S(=O)(=O)c2ccc(C(C)(C)C)cc2)c(O)n1-c1c(CC)cccc1CC [Example 362, 2-butyl-5-(4-tert-butylbenzenesulfonyl)-1-(2,6-diethylphenyl)-6-hydroxy-1,4-dihydropyrimidin-4-one] | 0.01 to 10 nM
5 | CCCCc1nc(=O)c(S(=O)(=O)c2ccc(-c3cncc(F)c3)cc2)c(O)n1[C@@H](C)c1ccccc1 [Example 128, (S)-2-Butyl-5-((4-(5-fluoropyridin-3-yl)phenyl)sulfonyl)-6-hydroxy-1-(1-phenylethyl)pyrimidin-4(1H)-one] | 0.01 to 10 nM
6 | COC[C@@H](c1cc(F)cc(F)c1)n1c(COC(C)C)nc(=O)c(S(=O)(=O)c2ccc(-c3ccnc(F)c3C)cc2)c1O [Example 378, 1-[(1R)-1-(3,5-difluorophenyl)-2-methoxyethyl]-5-[4-(2-fluoro-3-methylpyridin-4-yl)benzenesulfonyl]-6-hydroxy-2-[(propan-2-yloxy)methyl]-1,4-dihydropyrimidin-4-one] | 0.01 to 10 nM
7 | CCCCc1nc(=O)c(S(=O)(=O)c2ccc(-c3cccnc3C)cc2)c(O)n1[C@H](c1cccc(C#N)c1)C(C)C [Example 448, 3-[(1S)-1-{2-butyl-6-hydroxy-5-[4-(2-methylpyridin-3-yl)benzenesulfonyl]-4-oxo-1,4-dihydropyrimidin-1-yl}-2-methylpropyl]benzonitrile] | 0.01 to 10 nM
8 | CCCCc1nc(=O)c(S(=O)(=O)c2ccc(-c3ccnc4[nH]ccc34)cc2)c(O)n1[C@@H](CC)c1cccc(C#N)c1 [Example 510, 3-[(1S)-1-[2-buty1-6-hydroxy-4-oxo-5-(4-{1H-pyrrolo[2,3-b]pyridin-4-yl}benzenesulfonyl)-1,4-dihydropyrimidin-1-yl]propyl]benzonitrile] | 0.01 to 10 nM
9 | CCCCc1nc(=O)c(S(=O)(=O)[C@H]2CC[C@@H](O)CC2)c(O)n1-c1c(OC)cccc1OC [Example 555, 2-butyl-1-(2,6-dimethoxyphenyl)-6-hydroxy-5-{[(1s,4s)-4-hydroxycyclohexyl]sulfonyl}-1,4-dihydropyrimidin-4-one] | 0.01 to 10 nM

same assay, conditions: human APJ, cAMP accumulation; read-out: Human APJ cAMP EC50 Potency range

Row | Compound | EC50
10 | CCCCc1nc(=O)c(S(=O)(=O)c2ccc(-c3cncc(F)c3)cc2)c(O)n1[C@@H](C)c1ccccc1OC [Example 232, 2-butyl-5-[4-(5-fluoropyridin-3-yl)benzenesulfonyl]-6-hydroxy-1-[(1S)-1-(2-methoxyphenyl)ethyl]-1,4-dihydropyrimidin-4-one] | 0.01 to 10 nM
11 | CCOCc1nc(=O)c(S(=O)(=O)c2ccc(-c3ccc(F)nc3C)c(F)c2)c(O)n1C(COC)c1cccc(F)c1 (stereo not shown) [Example 347, 2-(ethoxymethyl)-5-[3-fluoro-4-(6-fluoro-2-methylpyridin-3-yl)benzenesulfonyl]-1-[1-(3-fluorophenyl)-2-methoxyethyl]-6-hydroxy-1,4-dihydropyrimidin-4-one] | 0.01 to 10 nM
12 | CCCCc1nc(=O)c(S(=O)(=O)c2ccc(-c3cccnc3C)cc2)c(O)n1[C@H](CC)c1cccc2c1OCO2 [Example 260, 1-[(1R)-1-(2H-1,3-benzodioxol-4-yl)propyl]-2-butyl-6-hydroxy-5-[4-(2-methylpyridin-3-yl)benzenesulfonyl]-1,4-dihydropyrimidin-4-one] | 0.01 to 10 nM
13 | CCCCc1nc(=O)c(S(=O)(=O)c2ccc(-c3ccnc(F)c3C)cc2)c(O)n1[C@@H](CC)c1cccc2c1OCO2 [Example 257, 1-[(1S)-1-(2H-1,3-benzodioxol-4-yl)propyl]-2-butyl-5-[4-(2-fluoro-3-methylpyridin-4-yl)benzenesulfonyl]-6-hydroxy-1,4-dihydropyrimidin-4-one] | 0.01 to 10 nM
14 | COc1cccc(OC)c1-n1c(-c2cncc(C)c2)nc(=O)c(S(=O)(=O)c2ccc(-c3cccnc3C)cc2)c1O [Example 272, 1-(2,6-dimethoxyphenyl)-6-hydroxy-2-(5-methylpyridin-3-yl)-5-[4-(2-methylpyridin-3-yl)benzenesulfonyl]-1,4-dihydropyrimidin-4-one] | 0.01 to 10 nM
15 | CCCCc1nc(=O)c(S(=O)(=O)c2ccc(-c3ccncc3C)cc2)c(O)n1[C@@H](CC)c1cccc(C#N)c1 [Example 229, 3-[(1S)-1-{2-butyl-6-hydroxy-5-[4-(3-methylpyridin-4-yl)benzenesulfonyl]-4-oxo-1,4-dihydropyrimidin-1-yl}propyl]benzonitrile] | 0.01 to 10 nM
16 | COC[C@@H](c1ccccc1)n1c(COC(C)C)nc(=O)c(S(=O)(=O)c2ccc(-c3ccncc3C)c(F)c2)c1O [Example 336, 5-[3-fluoro-4-(3-methylpyridin-4-yl)benzenesulfonyl]-6-hydroxy-1-[(1R)-2-methoxy-1-phenylethyl]-2-[(propan-2-yloxy)methyl]-1,4-dihydropyrimidin-4-one] | 0.01 to 10 nM
17 | COC[C@@H](c1ccccc1)n1c(COC(C)C)nc(=O)c(S(=O)(=O)c2ccc(Br)c(F)c2)c1O [Example 294, 5-(4-bromo-3-fluorobenzenesulfonyl)-6-hydroxy-1-[(1R)-2-methoxy-1-phenylethyl]-2-[(propan-2-yloxy)methyl]-1,4-dihydropyrimidin-4-one] | 0.01 to 10 nM
18 | CCCCc1nc(=O)c(S(=O)(=O)c2ccc(-c3cncc(F)c3)cc2)c(O)n1[C@H](CC)c1cccc2c1OCO2 [Example 255, 1-[(1R)-1-(2H-1,3-benzodioxol-4-yl)propyl]-2-butyl-5-[4-(5-fluoropyridin-3-yl)benzenesulfonyl]-6-hydroxy-1,4-dihydropyrimidin-4-one] | 0.01 to 10 nM
19 | COc1cccc(OC)c1-n1c(-c2cncc(C)c2)nc(=O)c(S(=O)(=O)c2ccc(C3CC3)cc2)c1O [Example 277, 5-(4-cyclopropylbenzene-sulfonyl)-1-(2,6-dimethoxyphenyl)-6-hydroxy-2-(5-methylpyridin-3-yl)-1,4-dihydropyrimidin-4-one] | 0.01 to 10 nM

same assay, conditions: human APJ, intracellular cAMP accumulation; read-out: Human APJ cAMP EC50 Potency range

Row | Compound | EC50
20 | COC[C@@H](c1ccccc1)n1c(CC2CC2)nc(=O)c(S(=O)(=O)c2ccc(-c3cncc(F)c3)cc2)c1O [Example 181, 2-(cyclopropylmethyl)-5-[4-(5-fluoropyridin-3-yl)benzenesulfonyl]-6-hydroxy-1-[(1R)-2-methoxy-1-phenylethyl]-1,4-dihydropyrimidin-4-one] | 0.01 to 10 nM
21 | CC[C@@H](c1ccccc1)n1c(CCC(C)C)nc(=O)c(S(=O)(=O)c2ccc(-c3ccc(F)nc3C)cc2)c1O [Example 208, 5-[4-(6-fluoro-2-methylpyridin-3-yl)benzenesulfonyl]-6-hydroxy-2-(3-methylbutyl)-1-[(1S)-1-phenylpropyl]-1,4-dihydropyrimidin-4-one] | 0.01 to 10 nM
22 | CCCCc1nc(=O)c(S(=O)(=O)c2ccc(-c3ccc(C(C)(C)O)cc3)cc2)c(O)n1-c1c(OC)cccc1OC [Example 31, 2-butyl-1-(2,6-dimethoxyphenyl)-6-hydroxy-5-{4-[4-(2-hydroxypropan-2-yl)phenyl]benzene-sulfonyl}-1,4-dihydropyrimidin-4-one] | 0.01 to 10 nM
23 | CCCCc1nc(=O)c(S(=O)(=O)c2ccc(-c3c(C)nnn3C)cc2)c(O)n1-c1c(OC)cccc1OC [Example 82, 2-butyl-1-(2,6-dimethoxyphenyl)-5-[4-(dimethyl-1H-1,2,3-triazol-5-yl)benzenesulfonyl]-6-hydroxy-1,4-dihydropyrimidin-4-one] | 0.01 to 10 nM
24 | COc1cccc(OC)c1-n1c(CCC(C)C)nc(=O)c(S(=O)(=O)c2ccccc2-c2ccccc2)c1O [Example 22, 1-(2,6-dimethoxyphenyl)-6-hydroxy-2-(3-methylbutyl)-5-(2-phenylbenzenesulfonyl)-1,4-dihydropyrimidin-4-one] | 10 to 100 nM
25 | CCCCc1nc(=O)c(S(=O)(=O)c2ccc(Br)cc2)c(O)n1[C@@H](C)c1cccc(C#N)c1 [Example 122, 3-[(1S)-1-[5-(4-bromobenzenesulfonyl)-2-butyl-6-hydroxy-4-oxo-1,4-dihydropyrimidin-1-yl]ethyl]benzonitrile] | 10 to 100 nM
26 | CCCCc1nc(=O)c(S(=O)(=O)c2ccc(-n3cc(F)ccc3=O)cc2)c(O)n1-c1c(OC)cccc1OC [Example 75, 2-butyl-1-(2,6-dimethoxyphenyl)-5-[4-(5-fluoro-2-oxo-1,2-dihydropyridin-1-yl)benzenesulfonyl]-6-hydroxy-1,4-dihydropyrimidin-4-one] | 0.01 to 10 nM
27 | CCCCc1nc(=O)c(S(=O)(=O)c2ccc(-c3cncc(F)c3)cc2)c(O)n1[C@H](C)c1cccc(C#N)c1 [Example 162, 3-[(1R)-1-{2-butyl-5-[4-(5-fluoropyridin-3-yl)benzenesulfonyl]-6-hydroxy-4-oxo-1,4-dihydropyrimidin-1-yl}ethyl]benzonitrile] | 10 to 100 nM
28 | CCCCc1nc(=O)c(S(=O)(=O)c2ccc(-c3ccccc3F)cc2)c(O)n1-c1c(OC)cccc1OC [Example 57, 2-butyl-1-(2,6-dimethoxyphenyl)-5-[4-(2-fluorophenyl)benzene-sulfonyl]-6-hydroxy-1,4-dihydropyrimidin-4-one] | 0.01 to 10 nM
